Laboratory results taken from patent publication US8946209B2, “Compositions and methods for treating and preventing urolithiasis and conditions associated therewith” (OptMed, Inc., priority 2009, dated 2015).

What was measured:
[1] = tested on: rat ureteral smooth muscle; experiment: Relaxant effect of diazepam on EFS-induced contraction of rat ureteral muscle strips (Example 3); type: cell-based, Wistar rats
Method: (§1) Ureteral muscle rings obtained from women undergoing nephrectomy or ureteral muscle strips harvested from adult male Wistar rats (n=8 samples of each) were mounted in 5 mL organ baths containing Krebs-Henseleit solution. The organ baths were kept at 37±1° C. and continuously aerated with 95% O2-5% CO2. After 60 minutes of equilibration, smooth muscle samples were exposed to 80 or 30 mM KCl (human and rat, respectively) to assess their viability. After washout and 30 additional minutes of equilibration, electrical field stimulation (EFS) was started. […] Time-matched controls were obtained exposing tissues to a solution of drug vehicle without diazepam (DMSO in distilled water). At the end of the experiment, the maximal relaxant capacities of each tissue were determined by exposure to 10 μM forskolin.

[2] = tested on: human ureteral smooth muscle; experiment: Relaxant effect of diazepam on EFS-induced contraction of human ureteral muscle rings (Example 3); type: cell-based
Method: as §1

CN1C(=O)CN=C(c2ccccc2)c2cc(Cl)ccc21 [diazepam, 7-chloro-1,3-dihydro-1-methyl-5-phenyl-2H-1,4-benzodiazepin-2-one]
Emax ([1]; read-out: maximal relaxant effect (Emax), of the basal response to EFS): 67.4 ± 5%
IC50 ([1]; read-out: pIC50 for inhibition of EFS-induced contraction (converted)): 1120 nM
Emax ([2]; Homo sapiens, read-out: maximal relaxant effect (Emax), of the basal response to EFS): 98.4 ± 0.2%
IC50 ([2]; Homo sapiens, read-out: pIC50 for inhibition of EFS-induced contraction (converted)): 4470 nM
restoration of baseline EFS-induced contractility after washout ([2]; human ureter, following total inhibition of tissue contraction by diazepam): restored after 3 washouts
